Measurements published in patent publication US20090076140A1, “PHARMACEUTICAL COMPOSITIONS CONTAINING SULPHONIC ACID DERIVATIVES” (ITALFARMACO, S. A., priority 2003, published 2009).

Tests used:
[1] = tested on: quiescent fibroblasts (Balb/c 3T3); assay: toxicity analysis for quiescent fibroblasts (culture in the absence of aFGF); format: cell-based; details: for toxicity for quiescent fibroblasts: within the concentration range tested / in which aFGF mitogenic activity is inhibited
aFGF = aFGF (Homo sapiens, UniProt P05230); assay: aFGF-induced mitogenesis inhibition test on fibroblasts in culture; format: cell-based; design: the aFGF of 139 amino acid residues; details: for aFGF-induced mitogenic activity inhibition (in words): Balb/c 3T3 fibroblasts, 60 hours, MIHS 20 μg/mL, aFGF 0.32 ng/mL; for aFGF-induced mitogenic inhibitory activity compared between compounds (stereochemical guidelines): C-9 and C-17 vs. C-14 and C-18, C-10, C-11, C-13 vs. C-9, 2-NMS vs 1-NMS series
[2] = listed as sodium 4-hydroxy-6-amino-2-naphthalenesulfonate

aFGF, sequence (P05230 16-155 limits assumed): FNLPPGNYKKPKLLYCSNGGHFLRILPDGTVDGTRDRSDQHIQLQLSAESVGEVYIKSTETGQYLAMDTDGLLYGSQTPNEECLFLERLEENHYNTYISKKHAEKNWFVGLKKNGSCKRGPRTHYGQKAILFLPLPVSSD

Compound	toxicity for quiescent fibroblasts [1]	aFGF-induced mitogenic activity inhibition (in words) (aFGF)	further results
O=S(=O)([O-])c1ccc2ncccc2c1.[Na+] [Compound C-23, sodium 6-quinolinesulfonate]	toxic effect	potent aFGF-induced mitogenic activity inhibitor	
Nc1ccc(S(=O)(=O)[O-])cc1.[Na+] [Compound C-20, sodium 4-aminobenzenesulfonate]	innocuous	little aFGF-induced mitogenesis inhibitory activity	
CC(=O)Nc1cccc2ccc(S(=O)(=O)[O-])cc12.[Na+] [Compound C-15, sodium 8-acetylamino-2-naphthalenesulfonate]	innocuous	aFGF-induced mitogenic activity inhibitors	
O=S(=O)(O)c1ccc2ccccc2c1 [Compound C-8, 2-naphthalenesulfonic acid]	toxic	inhibits aFGF-induced mitogenic activity at lower concentrations than compound C-1	aFGF-induced mitogenic activity inhibition (in words) (aFGF; listed as 2-NMS): inhibits aFGF-induced mitogenic activity
Nc1ccc2c(O)cc(S(=O)(=O)[O-])cc2c1.[Na+] [Compound C-18, sodium 7-amino-4-hydroxy-2-naphthalenesulfonate]		aFGF-induced mitogenic activity inhibitors	
Nc1ccc(S(=O)(=O)[O-])c2ccccc12.[Na+] [Compound C-3, sodium 4-amino-1-naphthalenesulfonate]	not toxic	low aFGF-induced mitogenesis inhibitory activity	
CC(=O)Nc1ccc2c(O)cc(S(=O)(=O)[O-])cc2c1.[Na+] [Compound C-19, sodium 7-acetylamino-4-hydroxy-2-naphthalenesulfonate]			mitogenesis inductor / tumorigenic effect on quiescent fibroblasts in the absence of aFGF [1]: certain tumorigenic effect
Nc1ccc2cc(S(=O)(=O)[O-])cc(O)c2c1.[Na+] [Compound C-17, sodium 6-amino-4-hydroxy-2-naphthalenesulfonate]	innocuous	slightly less than that of C-9	toxicity for quiescent fibroblasts [1, 2]: not toxic; aFGF-induced mitogenic activity inhibition (in words) (aFGF; [2]): potent aFGF-induced mitogenic activity inhibitors; aFGF-induced mitogenic inhibitory activity compared between compounds (stereochemical guidelines) (aFGF): better aFGF-induced mitogenic activity inhibitors
CN(C)c1cccc2c(S(=O)(=O)[O-])cccc12.[Na+] [Compound C-6, sodium 5-dimethylamino-1-naphthalenesulfonate]	certain toxic effect	aFGF-induced mitogenic activity inhibitors	
O=C(Nc1cccc2cc(S(=O)(=O)[O-])ccc12)c1ccccc1.[Na+] [Compound C-11, sodium 5-benzoylamino-2-naphthalenesulfonate]		aFGF-induced mitogenic activity inhibitors	aFGF-induced mitogenic inhibitory activity compared between compounds (stereochemical guidelines) (aFGF): significant reduction
Cc1ccc2ccccc2c1S(=O)(=O)[O-].[Na+] [Compound C-2, sodium 2-methyl-1-naphthalenesulfonate]	certain toxic effect	aFGF-induced mitogenic activity inhibitors	
Nc1cccc2ccc(S(=O)(=O)[O-])cc12.[Na+] [Compound C-14, sodium 8-amino-2-naphthalenesulfonate]	certain toxic effect	aFGF-induced mitogenic activity inhibitors	
NCc1ccc(S(=O)(=O)[O-])cc1.[Na+] [Compound C-21, sodium 4-(aminomethyl)benzenesulfonate]			mitogenesis inductor / tumorigenic effect on quiescent fibroblasts in the absence of aFGF [1]: certain tumorigenic effect
CN(C)Cc1cc2cc(S(=O)(=O)O)ccc2[nH]1 [Compound C-25, 2-[(dimethylamino)methyl]-1H-indole-5-sulfonic acid]			mitogenesis inductor / tumorigenic effect on quiescent fibroblasts in the absence of aFGF [1]: certain tumorigenic effect
